Measurements from article PMC10626578, “Designed switch from covalent to non-covalent inhibitors of carboxylesterase Notum activity” (European Journal of Medicinal Chemistry, 2023).
Converted amounts (≈) assume the structure as drawn. “And” between values parts separate entries of the source, which are not always exact repeats. Equal values may be shown once. Read-outs that look alike come from different tables or passages of the source.

Tests used:
[1] = Stability in mouse liver microsomes; format: in vitro ADME; conditions: for microsomal CLint at 1 h: Table 3, read-out: MLM Clint; for half-life: mouse, read-out: MLM Stability t1/2
Experimental: (§1) Selected compounds were routinely screened for aqueous solubility in PBS (pH 7.4), transit performance in MDCK-MDR1 cell lines for permeability, and metabolic stability in MLM and HLM as a measure of clearance. The main metabolites and routes of metabolism of 4y were determined in MLM. Assay protocols and additional data are presented in the Supplementary Material (Tables S1–S7). ADME studies reported in this work were performed by WuXi AppTec (Shanghai, China).
(§2) Representative assay protocols have been described in detail. ^1,2

[2] = target: T1, Notum (full length) (Homo sapiens, UniProt Q6P988); assay: Notum-OPTS biochemical assay, full length Notum
T1 construct: Screening 4w and 4y in the biochemical assay using full length Notum and OPTS
T1 sequence (Q6P988 20-496): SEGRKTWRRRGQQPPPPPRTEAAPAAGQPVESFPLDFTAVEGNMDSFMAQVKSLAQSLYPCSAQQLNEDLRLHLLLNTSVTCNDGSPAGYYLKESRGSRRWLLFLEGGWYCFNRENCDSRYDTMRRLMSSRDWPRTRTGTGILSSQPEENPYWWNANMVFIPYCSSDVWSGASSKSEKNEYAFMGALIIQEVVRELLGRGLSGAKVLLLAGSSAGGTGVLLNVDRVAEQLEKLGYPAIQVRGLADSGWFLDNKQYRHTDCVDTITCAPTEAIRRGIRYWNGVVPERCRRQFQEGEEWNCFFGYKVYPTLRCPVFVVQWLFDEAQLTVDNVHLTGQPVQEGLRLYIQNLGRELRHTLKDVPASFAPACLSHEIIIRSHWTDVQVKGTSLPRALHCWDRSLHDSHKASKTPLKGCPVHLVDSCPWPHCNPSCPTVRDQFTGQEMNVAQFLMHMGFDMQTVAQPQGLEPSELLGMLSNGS
Experimental: (§3) Early leads 4v, 4w and 4y were then evaluated in additional pharmacology and ADME screens (Table 3). […] Screening 4w and 4y in the biochemical assay using full length Notum and OPTS confirmed potent inhibition of Notum activity.
(§4) Methods have been described in detail.

[3] = Stability in mouse plasma; format: in vitro ADME
Source text: as §2

[4] = target: T2, Notum (Homo sapiens, UniProt Q6P988); assay: TCF/LEF Reporter (Luciferase) cell line with exogenous WNT3a and Notum; format: cell-based; conditions: for restoration of Wnt signalling in the presence of Notum: concentration-response curves up to 10 μM
T2 construct: host or cells: TCF/LEF Reporter (Luciferase) cell line; Notum added exogenously
T2 sequence (Q6P988 20-496): T1 sequence (Q6P988 20-496)
Experimental: Notum inhibitors 3–5 (Table 1, Table 2, Table 3, Table 4) were either purchased or prepared using established synthetic methods from readily available starting materials (Scheme 1). Where necessary, the synthesis of many of these amines (e.g. 6) have been reported previously and full details of their preparation have been included in the Experimental Section. Notum inhibition activity was determined using the standard Notum-OPTS biochemical assay using IC50 values. These values were used to compare relative activities with covalent inhibitors under carefully regulated assay conditions. Confirmed inhibitors were routinely screened in in vitro ADME assays. Selected inhibitors were screened for inhibition of Notum activity in a TCF/LEF Reporter (Luciferase) cell line with exogenous WNT3a and Notum, and soaked into Notum crystals to determine their binding modes and evidence of MoA. […]
as §4

[5] = Aqueous solubility in PBS (pH 7.4); format: physicochemical; conditions: for solubility thermodynamic: PBS, Table S2, pH 7.4, n = 2, * below lower limit of quantification, read-out: Thermodynamic Solubility @ RT; for solubility: Table 3, PBS pH 7.4
Experimental: as §1, §2

[6] = system: MDR1; assay: Permeability using MDR1-MDCKII cell monolayer; format: in vitro ADME; conditions: dog
Experimental: as §1, §2

[7] = system: MDR1-MDCKII cell monolayer; assay: Permeability using MDR1-MDCKII cell monolayer; format: in vitro ADME; conditions: Table 3; efflux ratio
Experimental: as §1, §2

[8] = Permeability using MDR1-MDCKII cell monolayer; format: in vitro ADME; conditions: dog, MDCK-MDR1, Table S3, mean n=2
Experimental: as §1, §2

[9] = Distribution coefficient LogD7.4, shake flask method; format: physicochemical; conditions: pH 7.4; Table 3
Experimental: Molecular properties (MW, clogP) were calculated with ChemDraw Professional v16.0.1.4(77). Distribution coefficients (LogD7.4) were measured using the shake flask method.
Representative assay protocols have been described in detail.^1,^2

[10] = target: T3, Notum (core, 81–451C330S) (Homo sapiens, UniProt Q6P988, C330S); assay: Notum-OPTS biochemical assay, Notum (81–451C330S)
T3 construct: high-throughput biochemical assay with Notum (81–451C330S) and OPTS as a synthetic fluorescent substrate; made in house
T3 sequence (Q6P988 81-451 C330S): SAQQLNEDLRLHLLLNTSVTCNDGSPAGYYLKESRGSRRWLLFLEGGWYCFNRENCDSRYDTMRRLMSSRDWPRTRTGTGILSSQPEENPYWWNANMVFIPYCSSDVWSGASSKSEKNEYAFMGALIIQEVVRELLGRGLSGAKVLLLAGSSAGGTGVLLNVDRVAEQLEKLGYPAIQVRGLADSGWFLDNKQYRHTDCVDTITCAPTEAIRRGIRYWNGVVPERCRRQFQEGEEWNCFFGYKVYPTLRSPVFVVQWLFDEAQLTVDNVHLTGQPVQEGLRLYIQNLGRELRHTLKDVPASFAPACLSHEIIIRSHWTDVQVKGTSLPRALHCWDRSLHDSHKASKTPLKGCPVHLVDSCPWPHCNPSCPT
Experimental: Notum inhibitors 3–5 (Table 1, Table 2, Table 3, Table 4) were either purchased or prepared using established synthetic methods from readily available starting materials (Scheme 1). Where necessary, the synthesis of many of these amines (e.g. 6) have been reported previously and full details of their preparation have been included in the Experimental Section. Notum inhibition activity was determined using the standard Notum-OPTS biochemical assay using IC50 values. These values were used to compare relative activities with covalent inhibitors under carefully regulated assay conditions. […] Selected inhibitors were screened for inhibition of Notum activity in a TCF/LEF Reporter (Luciferase) cell line with exogenous WNT3a and Notum, and soaked into Notum crystals to determine their binding modes and evidence of MoA.
as §4

[11] = Stability in human liver microsomes; format: in vitro ADME
Experimental: as §1, §2

[12] = system: TCF/LEF Reporter (Luciferase) cell line; assay: TCF/LEF reporter (Luciferase) assay with WNT3A in the absence of Notum; format: cell-based; conditions: up to 10 μM
Experimental: as §3
Figure S4D. Notum TCF/LEF reporter (Luciferase) data with WNT3A (200 ng/mL) in the absence of Notum. Representative response-concentration curves are for 4w (2 of 6 shown) from a larger data set for compounds 3-5. Examples are from different screening runs.

[13] = Metabolite identification of 4y in mouse liver microsomes (LC-UV-MS); format: in vitro ADME; conditions: 4y at 10 µM incubated with MLM at 37 °C for 60 min; share of total drug-related components
Experimental: The test compound 4y at 10 µM was incubated with mouse liver microsomes (MLM) at 37 °C for 60 min. The positive control, 7-ethoxycoumarin (7-EC) at 10 µM, was run concurrently to assess Phase I metabolic activities in liver microsomes. […] After incubation, the samples were analysed by LC-UV-MS. The structures of the metabolites were proposed based on the interpretation of their MS and MS^2 data.
The relative abundance of 4y and each of the putative metabolites were calculated using peak area (peak area under the UV spectrum at 250-280 nm) of individual metabolite relative to the total area of all detected drug-related components (Table S6).

[14] = Notum (full length), read-out: OPTS, IC50
[15] = Notum (core, 81–451C330S), restoration of Wnt signalling, read-out: TCF-LEF, EC50
[16] = Notum (core, 81–451C330S), read-out: OPTS, IC50
[17] = Table 2, mean ± s.d. of n = 4–12, >10 = 20–50% inhibition @ 10 μM, read-out: Notum IC50

Row | SMILES | MLM Stability Cli [1] [µL/min/mg protein] | microsomal CLint at 1 h [1] [µL/min/mg] | half-life [1] [min] | IC50 [2, 14] [nM] | EC50 [4, 15] [nM] | restoration of Wnt signalling in the presence of Notum [4] | solubility thermodynamic [5] [µg/mL] | solubility [5] [µg/mL] | IC50 [10, 16] [nM] | IC50 [10, 17] [nM] | assay interference or cell toxicity in the absence of Notum [12] | other results
1 | CC(=O)N1CCc2c1ccc(Cl)c2Cl [Compound 4w, 1-(4,5-Dichloroindolin-1-yl)ethan-1-one] | 1150 | 1200 | 1.2 | 4.9 ± 0.6 | 22 ± 14 | restored Wnt signalling | < 0.36 | 0.4 (≈ 1.74 µM) | 2.5 ± 0.6 | 2.5 ± 0.6 | not by assay interference or cell toxicity | IC50 ([2]; Figure S4B, Notum (full length) OPTS, 3 of 3 curves shown, read-out: IC50, single concentration-response curve): 5.3 nM and 4.1 nM and 5.4 nM; half-life ([3]; Table S5, read-out: Mouse plasma Stability t1/2): > 280 min; half-life ([3]; read-out: mouse plasma stability t½): > 240 min; EC50 ([4]; Figure S4C, WNT3A (200 ng/mL), 6 of 6 curves shown, read-out: EC50, single concentration-response curve): 5.5 nM and 4.3 nM and 15.2 nM and 39 nM and 29.1 nM and 36.8 nM; Papp ([6]; MDCK-MDR1, Table 3, apical to basal, read-out: MDCK-MDR1 AB Papp): 35 ×10⁻⁶ cm/s; Papp ([6]; MDCK-MDR1, Table 3, basal to apical, read-out: MDCK-MDR1 BA Papp): 21 ×10⁻⁶ cm/s; efflux ratio ([6]; MDCK-MDR1, Table S3, mean n=2): 0.59; Papp ([6]; MDCK-MDR1, Table S3, mean n=2, read-out: Apical to Basal Papp): 35.5 ×10⁻⁶ cm/s; Papp ([6]; MDCK-MDR1, Table S3, mean n=2, read-out: Basal to Apical Papp): 21.1 ×10⁻⁶ cm/s; MDCK-MDR1 ER [7]: 0.60; recovery ([8]; read-out: A to B % Recovery): 75%; recovery ([8]; read-out: B to A % Recovery): 81%; logD [9]: 3.1; IC50 ([10]; Figure S4A, Notum (81-451 C330S) OPTS, 4 of 11 curves shown, read-out: IC50, single concentration-response curve): 2.8 nM and 3.7 nM and 2.3 nM and 3.1 nM; LE ([10]; ligand efficiency from Notum OPTS IC50): 0.85; LLE ([10]; lipophilic ligand efficiency from Notum OPTS IC50 and clogP): 5.9; HLM Stability Cli [11]: 138 µL/min/mg protein; microsomal CLint at 1 h ([11]; Table 3, read-out: HLM Clint): 140 µL/min/mg; half-life ([11]; human, read-out: HLM Stability t1/2): 10 min
2 | CC(=O)N1CC2(CC2)c2c(Cl)cccc21 [Compound 4y, 1-(4′-Chlorospiro[cyclopropane-1,3′-indolin]-1′-yl)ethan-1-one] | 895 | 900 | 1.5 | 11 ± 1.4 | 35 ± 13 | restored Wnt signalling | 0.186 (≈ 0.839 µM) | 0.2 (≈ 0.902 µM) | 3.5 ± 0.6 | 3.5 ± 0.6 | not by assay interference or cell toxicity | Relative Abundance (UV peak area %Total) [13]: 30% and 30.48%
